This is an account of results in patent US10227329B2, “Compounds useful for treating disorders related to RET” (BLUEPRINT MEDICINES CORPORATION, priority 2016, dated 2019).

One assay addresses wild type RET (Homo sapiens (Human), UniProt P07949). In words: RET Wild Type Assay at KM (Caliper electrophoretic mobility shift). Format: biochemical. To be noted: 25 μM ATP (KM).
The target of another assay is RET V804L (Homo sapiens (Human), UniProt P07949, V804L). The experiment in a line: RET V804L Gatekeeper Mutant Assay at KM (Caliper electrophoretic mobility shift). The assay is classed as biochemical. To be noted: 10 μM ATP (KM), read-out: V480L Mutant.
RET V804L, sequence (P07949 29-1114 V804L): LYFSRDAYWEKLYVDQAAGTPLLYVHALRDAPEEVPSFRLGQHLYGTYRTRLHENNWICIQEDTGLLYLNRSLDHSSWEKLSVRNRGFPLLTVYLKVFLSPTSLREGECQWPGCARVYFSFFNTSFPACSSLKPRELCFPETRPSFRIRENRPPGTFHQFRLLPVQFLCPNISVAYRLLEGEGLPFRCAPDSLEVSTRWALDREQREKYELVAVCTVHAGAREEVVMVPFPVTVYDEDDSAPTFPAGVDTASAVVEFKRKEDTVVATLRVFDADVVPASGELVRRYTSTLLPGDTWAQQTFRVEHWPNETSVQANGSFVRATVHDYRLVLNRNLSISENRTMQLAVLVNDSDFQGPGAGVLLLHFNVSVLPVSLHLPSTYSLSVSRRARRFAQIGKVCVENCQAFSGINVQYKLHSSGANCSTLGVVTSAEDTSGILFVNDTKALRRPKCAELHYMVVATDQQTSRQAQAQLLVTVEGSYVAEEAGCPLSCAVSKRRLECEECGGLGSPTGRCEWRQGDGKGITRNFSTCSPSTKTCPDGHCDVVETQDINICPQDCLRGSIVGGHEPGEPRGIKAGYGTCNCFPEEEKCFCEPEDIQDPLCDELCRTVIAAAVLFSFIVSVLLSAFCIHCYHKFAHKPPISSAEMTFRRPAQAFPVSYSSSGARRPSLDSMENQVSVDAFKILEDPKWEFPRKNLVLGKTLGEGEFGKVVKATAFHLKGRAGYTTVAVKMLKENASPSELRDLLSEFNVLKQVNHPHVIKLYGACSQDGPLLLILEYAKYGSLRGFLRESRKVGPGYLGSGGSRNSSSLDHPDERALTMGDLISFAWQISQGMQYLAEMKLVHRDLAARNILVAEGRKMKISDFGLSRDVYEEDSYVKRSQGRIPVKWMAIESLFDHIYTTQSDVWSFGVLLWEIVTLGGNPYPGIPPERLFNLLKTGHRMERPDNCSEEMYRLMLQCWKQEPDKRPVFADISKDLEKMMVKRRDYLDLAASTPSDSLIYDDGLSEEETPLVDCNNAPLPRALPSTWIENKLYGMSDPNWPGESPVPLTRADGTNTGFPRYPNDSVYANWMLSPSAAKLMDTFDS

pIC50: −log10 of the molar value.

wild type RET, sequence (P07949 29-1114): as the sequence (P07949 29-1114 V804L) above, with L776V counted along it

With `COC1(C(=O)N[C@@H](C)c2ccc(-n3cc(F)cn3)nc2)CN(c2nc(C)cc(Nc3cc(C)[nH]n3)n2)C1` [Compound 169], the pIC50 on wild type RET and at RET V804L was > 8.00 in each case.

Regarding `COC1(C(=O)N[C@@H](C)c2ccc(-n3cc(F)cn3)nc2)CN(c2cc(C)nc(Nc3cc(C)[nH]n3)n2)C1` [Compound 170], the pIC50 on wild type RET and on RET V804L was > 8.00 in each case.

For the compound `Cc1cc(Nc2cc(C)c(F)c(N3CC(C(=O)N(C)[C@@H](C)c4ccc(-n5cc(F)cn5)nc4)C3)n2)n[nH]1` [Compound 171], the pIC50 on wild type RET and at RET V804L was > 8.00 in each case.

Consider `COC1(C(=O)NCc2ccc(-n3cc(Cl)cn3)nc2)CN(c2nc(C)cc(Nc3cc(C)[nH]n3)n2)C1` [Compound 172], for which the pIC50 on wild type RET and on RET V804L was > 8.00 throughout.

As for `COC1(C(=O)NCc2ccc(-n3cccn3)nc2)CN(c2cc(C(F)F)cc(Nc3cc(C)[nH]n3)n2)C1` [Compound 173], the pIC50 on wild type RET and on RET V804L was > 8.00 in each case.

Regarding `COC1(C(=O)NCc2ccc(-n3cc(F)cn3)nc2)CN(c2nc(Nc3cc(C)[nH]n3)cc(C)c2F)C1` [Compound 174], the pIC50 at wild type RET and on RET V804L was > 8.00 throughout.

Consider `COC1(C(=O)N[C@@H](C)c2ccc(-n3cccn3)nc2)CN(c2nc(Nc3cc(C)[nH]n3)cc(C)c2C#N)C1` [Compound 175], for which the pIC50 at wild type RET and on RET V804L was > 8.00 each time.

`COC1(C(=O)NCc2ccc(N3CCC(F)(F)C3)nc2)CN(c2nc(C)cc(Nc3cc(C)[nH]n3)n2)C1` [Compound 176]: the pIC50 on wild type RET and on RET V804L was 7.00 to 8.00 in each case.

Turning to `COC1(C(=O)NCc2ccc(-n3ccc(C4CC4)n3)nc2)CN(c2cc(C)cc(Nc3cc(C)[nH]n3)n2)C1` [Compound 177], the pIC50 on wild type RET and on RET V804L was > 8.00 each time.

On to `COC1(C(=O)NCc2ccc(-n3cc(C4CC4)cn3)nc2)CN(c2nc(C)cc(Nc3cc(C)[nH]n3)n2)C1` [Compound 178], for which the pIC50 at wild type RET and at RET V804L was > 8.00 throughout.

In the case of `COC1(C(=O)NCc2ccc(-n3ccc(C4CC4)n3)nc2)CN(c2nc(C)cc(Nc3cc(C)[nH]n3)n2)C1` [Compound 179], the pIC50 at wild type RET and at RET V804L was > 8.00 in each case.

As for `Cc1cc(Nc2cc(C(F)F)cc(N3CC(F)(C(=O)NCc4ccc(-n5cc(F)cn5)nc4)C3)n2)n[nH]1` [Compound 180], the pIC50 at wild type RET and at RET V804L was > 8.00 throughout.

As to `COC1(C(=O)N[C@@H](C)c2ccc(-n3cccn3)nc2)CCN(c2cc(C)cc(Nc3cc(C)[nH]n3)n2)CC1` [Compound 181], the pIC50 at wild type RET and at RET V804L was > 8.00 each time.

For the compound `Cc1cc(Nc2cc(C)[nH]n2)nc(N2CCC(O)(C(=O)NCc3ccc(-n4nc(C)cc4C)nc3)CC2)c1` [Compound 182], the pIC50 at wild type RET and at RET V804L was > 8.00 throughout.

`Cc1cc(Nc2cc(C(F)F)cc(N3CC(F)(C(=O)NCc4cnc(-n5cc(F)cn5)cn4)C3)n2)n[nH]1` [Compound 183]: the pIC50 on wild type RET and at RET V804L was > 8.00 each time.

With `COC1(C(=O)NCc2ccc(-n3cc(F)cn3)nc2)CN(c2nc(Nc3cc(C)[nH]n3)cc(C)c2C#N)C1` [Compound 184], the pIC50 on wild type RET and at RET V804L was > 8.00 each time.

As for `COC1(C(=O)N(C)Cc2ccc(-n3cccn3)nc2)CCN(c2nc(C)cc(Nc3cc(C)[nH]n3)n2)CC1` [Compound 185], the pIC50 on wild type RET and at RET V804L was > 8.00 in each case.

Take `COC1(C(=O)N[C@@H](C)c2ccc(-n3cccn3)nc2)CCN(c2nc(C)cc(Nc3cc(C)[nH]n3)n2)CC1` [Compound 186]: the pIC50 at wild type RET and on RET V804L was > 8.00 each time.

With `Cc1cc(Nc2cc(C)[nH]n2)nc(N2CCC(O)(C(=O)N(C)[C@@H](C)c3ccc(-n4cccn4)nc3)CC2)n1` [Compound 187], the pIC50 at wild type RET and at RET V804L was > 8.00 each time.

With `Cc1cc(Nc2cc(C)[nH]n2)nc(N2CCC(C)(C(=O)N[C@@H](C)c3ccc(-n4cc(F)cn4)nc3)CC2)c1` [Compound 188], the pIC50 at wild type RET and at RET V804L was > 8.00 each time.

`Cc1cc(Nc2cc(C)c(C#N)c(N3CC(F)(C(=O)N[C@@H](C)c4ccc(-n5cc(F)cn5)nc4)C3)n2)n[nH]1` [Compound 189]: the pIC50 on wild type RET and on RET V804L was > 8.00 each time.

For the compound `CCC1(C(=O)NCc2ccc(-n3cc(F)cn3)nc2)CCN(c2nc(C)cc(Nc3cc(C)[nH]n3)n2)CC1` [Compound 190], the pIC50 at wild type RET and at RET V804L was > 8.00 throughout.

For `Cc1cc(Nc2cc(C)[nH]n2)nc(N2CCC(C)(C(=O)N[C@@H](C)c3ccc(-n4cc(F)cn4)nc3)CC2)n1` [Compound 191], the pIC50 on wild type RET and on RET V804L was > 8.00 throughout.

Consider `Cc1cc(Nc2cc(C)[nH]n2)nc(N2CCC(O)(C(=O)N[C@@H](C)c3ccc(-n4cc(F)cn4)nc3)CC2)c1` [Compound 192], for which the pIC50 at wild type RET and at RET V804L was > 8.00 in each case.

Take `COC1(C(=O)NCc2ccc(-n3cc(F)cn3)nc2)CCN(c2cc(C)cc(Nc3cc(C)[nH]n3)n2)CC1` [Compound 193]: the pIC50 at wild type RET and at RET V804L was > 8.00 each time.

On to `CCOC1(C(=O)N[C@@H](C)c2ccc(-n3cc(F)cn3)nc2)CN(c2cc(C)cc(Nc3cc(C)[nH]n3)n2)C1` [Compound 194, (S)-3-ethoxy-N-(1-(6-(4-fluoro-1H-pyrazol-1-yl)pyridin-3-yl)ethyl)-1-(4-methyl-6-((5-methyl-1H-pyrazol-3-yl)amino)pyridin-2-yl)azetidine-3-carboxamide], for which the pIC50 on wild type RET and on RET V804L was > 8.00 in each case.

On to `COC1(C(=O)NCc2ccc(-n3cc(F)cn3)nc2)CCN(c2nc(C)cc(Nc3cc(C)[nH]n3)n2)CC1` [Compound 195], for which the pIC50 on wild type RET and on RET V804L was > 8.00 each time.

`COC1(C(=O)N[C@@H](C)c2ccc(-n3cc(F)cn3)nc2)CCN(c2nccc(Nc3cc(C)[nH]n3)n2)CC1` [Compound 196]: the pIC50 on wild type RET and at RET V804L was > 8.00 throughout.

With `CCOC1(C(=O)N[C@@H](C)c2ccc(-n3cc(F)cn3)nc2)CN(c2nc(C)cc(Nc3cc(C)[nH]n3)n2)C1` [Compound 197], the pIC50 on wild type RET and on RET V804L was > 8.00 in each case.

For `CO[C@@]1(C(=O)N[C@@H](C)c2ccc(-n3cc(F)cn3)nc2)CN(c2nc(C)cc(Nc3cc(C)[nH]n3)n2)[C@@H]1C` [Compound 198], the pIC50 on wild type RET and on RET V804L was > 8.00 in each case.

In the case of `CO[C@]1(C(=O)N[C@@H](C)c2ccc(-n3cc(F)cn3)nc2)CN(c2nc(C)cc(Nc3cc(C)[nH]n3)n2)[C@H]1C` [Compound 199], the pIC50 at wild type RET and at RET V804L was > 8.00 in each case.

With `Cc1cc(Nc2cc(C)[nH]n2)nc(N2CCC(F)(C(=O)N[C@@H](C)c3ccc(-n4cc(F)cn4)nc3)CC2)c1` [Compound 200], the pIC50 on wild type RET and at RET V804L was > 8.00 throughout.

Regarding `COC1(C(=O)N[C@@H](C)c2ccc(-n3cccn3)nc2)CN(c2cc(C(F)F)cc(Nc3cc(C)[nH]n3)n2)C1` [Compound 201], the pIC50 at wild type RET and at RET V804L was > 8.00 each time.

For `COC1(C(=O)N[C@@H](C)c2ccc(-n3cc(F)cn3)nc2)CN(c2nc(Nc3cc(C)[nH]n3)cc(C)c2F)C1` [Compound 202], the pIC50 at wild type RET and at RET V804L was > 8.00 throughout.

Take `COC1(C(=O)NCc2ccc(-n3cc(C(F)F)cn3)nc2)CN(c2nc(C)cc(Nc3cc(C)[nH]n3)n2)C1` [Compound 203]: the pIC50 on wild type RET and at RET V804L was 7.00 to 8.00 throughout.

Consider `COC1(C(=O)NCc2cnc(-n3ccc(C(F)F)n3)cn2)CN(c2nc(C)cc(Nc3cc(C)[nH]n3)n2)C1` [Compound 205], for which the pIC50 on wild type RET was 7.00 to 8.00; on RET V804L it was > 8.00.

Consider `Cc1cc(Nc2cc(C)[nH]n2)nc(N2CCC(CC#N)(C(=O)N[C@@H](C)c3ccc(-n4cccn4)nc3)CC2)n1` [Compound 206], for which the pIC50 on wild type RET and at RET V804L was > 8.00 in each case.

For the compound `COC1(C(=O)NCc2ccc(-n3cccn3)nc2)CCN(c2nc(Nc3cc(C)[nH]n3)cc(C)c2C#N)CC1` [Compound 207], the pIC50 at wild type RET and on RET V804L was > 8.00 in each case.

On to `COC1(C(=O)NCc2ccc(-n3cc(F)cn3)nc2)CN(c2cc(C(F)F)cc(Nc3cc(C)[nH]n3)n2)C1` [Compound 208], for which the pIC50 at wild type RET and at RET V804L was > 8.00 in each case.

For the compound `CCC1(C(=O)NCc2ccc(-n3nc(C)cc3C)nc2)CCN(c2nc(C)cc(Nc3cc(C)[nH]n3)n2)CC1` [Compound 209], the pIC50 on wild type RET and on RET V804L was > 8.00 throughout.

In the case of `Cc1cc(Nc2cc(C(F)F)cc(N3CC(F)(C(=O)N[C@@H](C)c4ccc(-n5cc(F)cn5)nc4)C3)n2)n[nH]1` [Compound 210], the pIC50 on wild type RET and at RET V804L was > 8.00 throughout.

Take `COC1(C(=O)NCc2ccc(-n3nc(C)cc3C)nc2)CCN(c2cc(C)cc(Nc3cc(C)[nH]n3)n2)CC1` [Compound 211]: the pIC50 at wild type RET and at RET V804L was > 8.00 in each case.

Regarding `COC1(C(=O)N[C@@H](C)c2ccc(-n3cc(F)cn3)nc2)CN(c2nc(Nc3cc(C)[nH]n3)cc(C)c2C#N)C1` [Compound 212], the pIC50 on wild type RET and at RET V804L was > 8.00 each time.

In the case of `COCCC1(C(=O)NCc2ccc(-n3cccn3)nc2)CCN(c2nc(C)cc(Nc3cc(C)[nH]n3)n2)CC1` [Compound 213], the pIC50 on wild type RET and on RET V804L was > 8.00 each time.

For the compound `COC1(C(=O)N(C)[C@@H](C)c2ccc(-n3cccn3)nc2)CCN(c2nc(C)cc(Nc3cc(C)[nH]n3)n2)CC1` [Compound 214], the pIC50 on wild type RET and on RET V804L was > 8.00 each time.

On to `COC1(C(=O)NCc2ccc(-n3nc(C)cc3C)nc2)CCN(c2nc(C)cc(Nc3cc(C)[nH]n3)n2)CC1` [Compound 215], for which the pIC50 on wild type RET and on RET V804L was > 8.00 throughout.

As to `COC1(C(=O)N[C@@H](C)c2ccc(-n3cc(F)cn3)nc2)CCN(c2cc(C)cc(Nc3cc(C)[nH]n3)n2)CC1` [Compound 216], the pIC50 on wild type RET and on RET V804L was > 8.00 each time.
